Like-named read-outs stand apart in the source and are kept apart here.
Experiments:
Assay type in all cases: cell-based
[1] = tested on: 3D7 strain of Plasmodium falciparum; experiment: Potency in the 3D7 strain of Plasmodium falciparum (EC50); conditions: Plasmodium falciparum
Source text: (§1) The present invention relates to methods of treating malaria with tetrahydrobenzonaphtyridine carboxanilide (TBN) derivatives and related pyrrolinones and hydrolysis products thereof. These compounds are active against Plasmodium falciparum strains that are resistant to multiple drugs currently on the market. The present invention further relates to novel compounds and pharmaceutical compositions comprising such compounds. The compounds have been synthesized and tested for their potency in the 3D7 strain of Plasmodium falciparum. Their cytotoxicity was also tested in the BJ human fibroblast line. No compounds show significant cytotoxicity.
(§2) A high-throughput screen performed against the Plasmodium parasite. About 8,000 compounds were screened. Each hit was tested against resistant P. falciparum variants K1, V1S, D10DD, ATP4 1247, and C2B. Potency against these assays assured that the chemotype acts through a mechanism distinct from that of halofantrine, chloroquine, mefloquine, pyrimethamine, proguanil, atovaquone, and (+)SJ733. The toxicity of the compounds was also measured by testing their lethality against a BJ cell line (human fibroblasts). No TBNs were toxic. A structure activity investigation was performed in order to improve the EC50 of the TBNs to the single-digit nanomolar range, as well as to increase the water solubility.
(§3) Substituents were installed at N−2 by using a variety of methods. Reductive alkylation (Abdel-Magid, A. F.; Mehrman, S. J. A Review on the Use of Sodium Triacetoxyborohydride in the Reductive Amination of Ketones and Aldehydes. Org. Process Res. Dev. 2006, 10 (5), 971-1031) was a dependable technique that produced over fifteen analogues. Conjugate additions and nucleophilic substitutions provided most of the others. A type of reductive alkylation that uses carboxylic acids instead of aldehydes (the Beller reduction) led to two analogues (Sorribes, I.; Junge, K.; Beller, M. Direct Catalytic N-Alkylation of Amines with Carboxylic Acids. J. Am. Chem. Soc. 2014, 136 (40), 14314-14319. Some of the compounds listed were synthesized through other means, or were derived from other TBNs. Compounds 66 and 128 were produced by the amidation of acids 132 and 133, which had the corresponding substitution already installed. TBNs 93, and 94 were produced from the Pfitzinger products formed from the condensation of isatin with (R)-1-(1-phenylethyl)piperidin-4-one (134) and (S)-1-(1-phenylethyl)piperidin-4-one (135), respectively.

in vitro = conditions: human
Source text: as §1, §2

[2] = tested on: resistant P. falciparum variant K1; experiment: Potency against resistant P. falciparum variant K1 (EC50); conditions: Plasmodium falciparum, K1, read-out: K1 EC50 (μM)
Method: as §2, §3

[3] = 3D7, read-out: 3D7 Mean EC50 (μM)
[4] = 3D7, read-out: 3D7 Mean EC50 of the TBN (μM)

Row | Compound | EC50 [1, 3] [µM] | EC50 (in vitro) [nM] | EC50 [2] [µM] | EC50 [1, 4] [µM]
1 | O=C1c2c3c(nc4ccc(Cl)cc24)CCN(CCc2ccccc2)C3N1c1cccc(Cl)c1 (centres unmarked) [Compound 176, 9-Chloro-2-(3-chlorophenyl)-3-phenethyl-2a,3,4,5-tetrahydrobenzo[b]pyrrolo[4,3,2-de][1,6]naphthyridin-1(2H)-one] | < 0.00296 | > 24000 | – | –
2 | O=C1c2c3c(nc4ccc(Cl)cc24)CCN(CCc2ccccc2)C3N1c1ccc(Br)cc1 (centres unmarked) [Compound 182, 2-(4-Bromophenyl)-9-chloro-3-phenethyl-2a,3,4,5-tetrahydrobenzo[b]pyrrolo[4,3,2-de][1,6]naphthyridin-1(2H)-one] | 0.0396 ± 0.017 | > 24000 | – | –
3 | O=C1c2c3c(nc4cc(Cl)ccc24)CCN(CCc2ccccc2)C3N1c1ccc(Cl)cc1 (centres unmarked) [Compound 179, 8-Chloro-2-(4-chlorophenyl)-3-phenethyl-2a,3,4,5-tetrahydrobenzo[b]pyrrolo[4,3,2-de][1,6]naphthyridin-1(2H)-one] | 0.0059 ± 0.002 | 22600 ± 373 | – | –
4 | O=C(Nc1ccc(Br)cc1)c1c2c(nc3cc(Cl)ccc13)CCN(CCc1ccccc1)C2 [Compound 171, N-(4-Bromophenyl)-7-chloro-2-phenethyl-1,2,3,4-tetrahydrobenzo[b][1,6]naphthyridine-10-carboxamide] | 0.37 ± 0.26 | > 24000 | – | –
5 | O=C(Nc1ccc(F)c(F)c1)c1c2c(nc3ccccc13)CCN(CCOC1CCCCO1)C2 (centres unmarked) [Compound 102, N-(3,4-Difluorophenyl)-2-(2-((tetrahydro-2H-pyran-2-yl)oxy)ethyl)-1,2,3,4-tetrahydrobenzo[b][1,6]naphthyridine-10-carboxamide] | 0.441 ± 0.156 | – | 0.178 ± 0.0436 | –
6 | COc1ccc(NC(=O)c2c3c(nc4ccc(Cl)cc24)CCN(CCc2ccccc2)C3)cc1OC [Compound 170, 8-Chloro-N-(3,4-dimethoxyphenyl)-2-phenethyl-1,2,3,4-tetrahydrobenzo[b][1,6]naphthyridine-10-carboxamide] | 0.116 ± 0.025 | > 24000 | – | –
7 | O=C(Nc1ccc(F)c(F)c1)c1c2c(nc3ccccc13)CCN(Cc1ccccn1)C2 [Compound 105, N-(3,4-Difluorophenyl)-2-(pyridin-2-ylmethyl)-1,2,3,4-tetrahydrobenzo[b][1,6]naphthyridine-10-carboxamide] | 0.456 ± 0.0964 | – | 0.129 | –
8 | O=C(Nc1ccc(F)c(F)c1)c1c2c(nc3ccccc13)CCN(Cc1ccc(F)cc1)C2 [Compound 107, N-(3,4-Difluorophenyl)-2-(4-fluorobenzyl)-1,2,3,4-tetrahydrobenzo[b][1,6]naphthyridine-10-carboxamide] | 0.569 | – | 0.401 | –
9 | CC(C)N1CCc2nc3ccccc3c(C(=O)Nc3ccc(F)c(F)c3)c2C1 [Compound 96, N-(3,4-Difluorophenyl)-2-isopropyl-1,2,3,4-tetrahydrobenzo[b][1,6]naphthyridine-10-carboxamide] | 0.215 ± 0.269 | – | 0.177 | –
10 | O=C(Nc1ccc(Cl)cc1)c1c2c(nc3cc(Cl)ccc13)CCN(CCc1ccccc1)C2 [Compound 165, 7-Chloro-N-(4-chlorophenyl)-2-phenethyl-1,2,3,4-tetrahydrobenzo[b][1,6]naphthyridine-10-carboxamide] | < 0.00809 | > 24000 | – | –
11 | O=C(Nc1ccc(F)c(F)c1)c1c2c(nc3ccccc13)CCN(Cc1cccnc1)C2 [Compound 106, N-(3,4-Difluorophenyl)-2-(pyridin-3-ylmethyl)-1,2,3,4-tetrahydrobenzo[b][1,6]naphthyridine-10-carboxamide] | 0.475 ± 0.163 | – | 0.236 | –
12 | COC(=O)C(C)CN1CCc2nc3ccccc3c(C(=O)Nc3ccc(F)c(F)c3)c2C1 (centres unmarked) [Compound 97, Methyl 3-(10-((3,4-difluorophenyl)carbamoyl)-3,4-dihydrobenzo[b][1,6]naphthyridin-2(1H)-yl)-2-methylpropanoate] | 0.328 ± 0.17 | – | 0.185 | –
13 | N#Cc1cc(N2C(=O)c3c4c(nc5cc(Cl)ccc35)CCN(CCc3ccccc3)C42)ccc1F (centres unmarked) [Compound 184, 5-(8-Chloro-1-oxo-3-phenethyl-2a,3,4,5-tetrahydrobenzo[b]pyrrolo[4,3,2-de][1,6]naphthyridin-2(1H)-yl)-2-fluorobenzonitrile] | 0.0437 ± 0.021 | > 24000 | – | –
14 | O=C(Nc1ccc(F)c(F)c1)c1c2c(nc3ccccc13)CCN(CCCO)C2 [Compound 122, N-(3,4-Difluorophenyl)-2-(3-hydroxypropyl)-1,2,3,4-tetrahydrobenzo[b][1,6]naphthyridine-10-carboxamide] | 6.81 ± 2.54 | – | 4.64 ± 1.55 | –
15 | O=C(Nc1ccc(F)c(F)c1)c1c2c(nc3ccccc13)CCN(CCCC(F)(F)F)C2 [Compound 108, N-(3,4-Difluorophenyl)-2-(4,4,4-trifluorobutyl)-1,2,3,4-tetrahydrobenzo[b][1,6]naphthyridine-10-carboxamide] | 0.665 ± 0.734 | – | 0.241 | –
16 | N#Cc1cc(NC(=O)c2c3c(nc4cc(Cl)ccc24)CCN(CCc2ccccc2)C3)ccc1F [Compound 169, 7-Chloro-N-(3-cyano-4-fluorophenyl)-2-phenethyl-1,2,3,4-tetrahydrobenzo[b][1,6]naphthyridine-10-carboxamide] | 0.04 ± 0.032 | > 24000 | – | –
17 | CC(c1ncccn1)N1CCc2nc3ccccc3c(C(=O)Nc3ccc(F)c(F)c3)c2C1 (centres unmarked) [Compound 104, N-(3,4-Difluorophenyl)-2-(1-(pyrimidin-2-yl)ethyl)-1,2,3,4-tetrahydrobenzo[b][1,6]naphthyridine-10-carboxamide] | 0.453 ± 0.238 | – | 0.117 ± 0.0339 | –
18 | CN(C)CCN1CCc2nc3ccccc3c(C(=O)Nc3ccc(F)c(F)c3)c2C1 [Compound 124, N-(3,4-Difluorophenyl)-2-(2-(dimethylamino)ethyl)-1,2,3,4-tetrahydrobenzo[b][1,6]naphthyridine-10-carboxamide] | 8.54 ± 1.84 | – | > 19.2 | –
19 | C[C@H](c1ccccc1)N1CCc2nc3ccccc3c(C(=O)Nc3ccc(F)c(F)c3)c2C1 [Compound 93, (R)—N-(3,4-Difluorophenyl)-2-(1-phenylethyl)-1,2,3,4-tetrahydrobenzo[b][1,6]naphthyridine-10-carboxamide] | 0.131 ± 0.00623 | – | 0.064 | –
20 | CCN1CCc2nc3c(c(C(=O)Nc4ccc(F)c(F)c4)c2C1)CCCC3 [Compound 138, N-(3,4-Difluorophenyl)-2-ethyl-1,2,3,4,6,7,8,9-octahydrobenzo[b][1,6]naphthyridine-10-carboxamide] | 0.715 ± 0.29 | – | 0.64 | > 12.2
21 | C[C@@H](c1ccccc1)N1CCc2nc3ccccc3c(C(=O)Nc3ccc(F)c(F)c3)c2C1 [Compound 94, (S)—N-(3,4-Difluorophenyl)-2-(1-phenylethyl)-1,2,3,4-tetrahydrobenzo[b][1,6]naphthyridine-10-carboxamide] | 0.154 ± 0.0285 | – | 0.148 | –
22 | CC(C)(O)CCN1CCc2nc3ccccc3c(C(=O)Nc3ccc(F)c(F)c3)c2C1 [Compound 116, N-(3,4-Difluorophenyl)-2-(3-hydroxy-3-methylbutyl)-1,2,3,4-tetrahydrobenzo[b][1,6]naphthyridine-10-carboxamide] | 2.01 ± 0.277 | – | 1.44 ± 0.337 | –
23 | O=C(Nc1ccc(F)c(F)c1)c1c2c(nc3ccccc13)CCN(CCO)C2 [Compound 120, N-(3,4-Difluorophenyl)-2-(2-hydroxyethyl)-1,2,3,4-tetrahydrobenzo[b][1,6]naphthyridine-10-carboxamide] | 3.84 ± 2.08 | – | 2.2 ± 0.268 | –
24 | O=C(Nc1ccc(F)c(F)c1)c1c2c(nc3ccccc13)CCN(CC1CC1)C2 [Compound 101, 2-(Cyclopropylmethyl)-N-(3,4-difluorophenyl)-1,2,3,4-tetrahydrobenzo[b][1,6]naphthyridine-10-carboxamide] | 0.429 ± 0.303 | – | 0.272 | –
25 | CC(c1ccccn1)N1CCc2nc3c(c(C(=O)Nc4ccc(F)c(F)c4)c2C1)CCCC3 (centres unmarked) [Compound 140, N-(3,4-Difluorophenyl)-2-(1-(pyridin-2-yl)ethyl)-1,2,3,4,6,7,8,9-octahydrobenzo[b][1,6]naphthyridine-10-carboxamide] | 1.5 ± 0.389 | – | 0.558 ± 0.123 | 0.0603 ± 0.0234
26 | O=C(O)CCN1CCc2nc3ccccc3c(C(=O)Nc3ccc(F)c(F)c3)c2C1 [Compound 131, 3-(10-((3,4-Difluorophenyl)carbamoyl)-3,4-dihydrobenzo[b][1,6]naphthyridin-2(1H)-yl)propanoic acid] | > 19.2 | – | > 19.2 | –
27 | Cc1nc(CN2CCc3nc4ccccc4c(C(=O)Nc4ccc(F)c(F)c4)c3C2)cs1 [Compound 112, N-(3,4-Difluorophenyl)-2-((2-methylthiazol-4-yl)methyl)-1,2,3,4-tetrahydrobenzo[b][1,6]naphthyridine-10-carboxamide] | 1.03 ± 0.549 | – | 0.641 | –

Reference: patent US12370183B2, “Compositions and methods for treating malaria” (Rutgers, The State University of New Jersey, priority 2020, dated 2025)
